Measured values as given in patent US20110046104A1, “AMINOPYRIMIDINES USEFUL AS KINASE INHIBITORS” (VERTEX PHARMACEUTICALS INCORPORATED, priority 2007, published 2011).

Each compound was assayed against Aurora-1 (Aurora B) (Homo sapiens, UniProt Q96GD4) (assay: Aurora-1 (Aurora B) inhibition assay (radiometric)). Conditions: 800 μM [γ-33P]-ATP, Kemptide, 25° C., 3 hours.
Assay type: biochemical
Experimental: An assay buffer solution was prepared which consisted of 25 mM HEPES (pH 7.5), 10 mM MgCl2, 0.1% BSA and 10% glycerol. A 22 nM Aurora-B solution, also containing 1.7 mM DTT and 1.5 mM Kemptide (LRRASLG), was prepared in assay buffer. To 22 μL of the Aurora-B solution, in a 96-well plate, was added 2 μl of a compound stock solution in DMSO and the mixture allowed to equilibrate for 10 minutes at 25° C. The enzyme reaction was initiated by the addition of 16 μl stock [γ-^33P]-ATP solution (˜20 nCi/μL) prepared in assay buffer, to a final assay concentration of 800 μM. The reaction was stopped after 3 hours by the addition of 16 μL 500 mM phosphoric acid and the levels of ^33P incorporation into the peptide substrate were determined by the following method.
A phosphocellulose 96-well plate (Millipore, Cat no. MAPHNOB50) was pre-treated with 100 μL of a 100 mM phosphoric acid prior to the addition of the enzyme reaction mixture (40 μL). The solution was left to soak on to the phosphocellulose membrane for 30 minutes and the plate subsequently washed four times with 200 μL of a 100 mM phosphoric acid. To each well of the dry plate was added 30 μL of Optiphase ‘SuperMix’ liquid scintillation cocktail (Perkin Elmer) prior to scintillation counting (1450 Microbeta Liquid Scintillation Counter, Wallac). Levels of non-enzyme catalyzed background radioactivity were determined by adding 16 μL of the 500 mM phosphoric acid to control wells, containing all assay components (which acts to denature the enzyme), prior to the addition of the [γ-^33P]-ATP solution. Levels of enzyme catalyzed ^33P incorporation were calculated by subtracting mean background counts from those measured at each inhibitor concentration. For each Ki determination 8 data points, typically covering the concentration range 0-10 μM compound, were obtained in duplicate (DMSO stocks were prepared from an initial compound stock of 10 mM with subsequent 1:2.5 serial dilutions). Ki values were calculated from initial rate data by non-linear regression using the Prism software package (Prism 3.0, Graphpad Software, San Diego, Calif.).

Aurora-1 (Aurora B), sequence (Q96GD4 whole entry): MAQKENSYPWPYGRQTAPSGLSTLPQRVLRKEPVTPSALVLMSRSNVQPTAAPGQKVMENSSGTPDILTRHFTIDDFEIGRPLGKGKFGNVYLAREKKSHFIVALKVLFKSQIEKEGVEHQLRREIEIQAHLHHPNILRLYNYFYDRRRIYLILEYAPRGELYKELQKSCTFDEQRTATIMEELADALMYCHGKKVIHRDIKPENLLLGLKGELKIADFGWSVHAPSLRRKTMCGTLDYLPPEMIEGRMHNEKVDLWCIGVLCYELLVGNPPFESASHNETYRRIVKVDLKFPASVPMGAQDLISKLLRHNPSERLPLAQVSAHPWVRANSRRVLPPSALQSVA

Ki	Structure (SMILES)
> 1500 nM	O=C(CC(F)(F)F)Nc1ccc(Sc2nc(Nc3ncns3)cc(N3CC(F)(C4CC4)C3)n2)cc1 [Compound I-1, N-(4-(4-(1,2,4-thiadiazol-5-ylamino)-6-(3-cyclopropyl-3-fluoroazetidin-1-yl)pyrimidin-2-ylthio)phenyl)-3,3,3-trifluoropropanamide]
> 1500 nM	O=C(CC(F)(F)F)Nc1ccc(Sc2nc(Nc3nnc[nH]3)cc(N3CC(F)(C4CC4)C3)n2)cc1 [Compound I-2, N-(4-(4-(4H-1,2,4-Triazol-3-ylamino)-6-(3-cyclopropyl-3-fluoroazetidin-1-yl)pyrimidin-2-ylthio)phenyl)-3,3,3-trifluoropropanamide]
< 500 nM	O=C(CC(F)(F)F)Nc1ccc(Sc2nc(Nc3ccccn3)cc(N3CC(F)(C4CC4)C3)n2)cc1 [Compound I-3, N-(4-(4-(3-Cyclopropyl-3-fluoroazetidin-1-yl)-6-(pyridin-2-ylamino)pyrimidin-2-ylthio)phenyl)-3,3,3-trifluoropropanamide]
> 1500 nM	O=C(Nc1ccc(Sc2nc(Nc3ncns3)cc(N3CC(F)(C4CC4)C3)n2)cc1)C1CC1 [Compound I-4, N-(4-(4-(1,2,4-Thiadiazol-5-ylamino)-6-(3-cyclopropyl-3-fluoroazetidin-1-yl)pyrimidin-2-ylthio)phenyl)cyclopropanecarboxamide]
< 500 nM	O=C(Nc1ccc(Sc2nc(Nc3ncns3)cc(N3CCC3)n2)cc1)c1ccccc1Cl [Compound I-7, N-(4-(4-(1,2,4-Thiadiazol-5-ylamino)-6-(azetidin-1-yl)pyrimidin-2-ylthio)phenyl)-2-chlorobenzamide]
> 1500 nM	O=C(NCC(F)(F)F)c1ccc(Sc2nc(Nc3ncns3)cc(N3CC(F)(C4CC4)C3)n2)cc1 [Compound I-8, 4-(4-(1,2,4-Thiadiazol-5-ylamino)-6-(3-cyclopropyl-3-fluoroazetidin-1-yl)pyrimidin-2-ylthio)-N-(2,2,2-trifluoroethyl)benzamide]
> 1500 nM	O=C(CC(F)(F)F)Nc1ccc(Sc2nc(Nc3ccccn3)cc(N3CC[C@H](F)C3)n2)cc1 [Compound I-9, (S)-3,3,3-Trifluoro-N-(4-(4-(3-fluoropyrrolidin-1-yl)-6-(pyridin-2-ylamino)pyrimidin-2-ylthio)phenyl)propanamide]
< 500 nM	O=C(CC(F)(F)F)Nc1ccc(Sc2nc(Nc3nnc[nH]3)cc(N3CC[C@H](F)C3)n2)cc1 [Compound I-10, (S)—N-(4-(4-(4H-1,2,4-Triazol-3-ylamino)-6-(3-fluoropyrrolidin-1-yl)pyrimidin-2-ylthio)phenyl)-3,3,3-trifluoropropanamide]
> 1500 nM	O=C(CC(F)(F)F)Nc1ccc(Sc2nc(Nc3ncns3)cc(N3CC[C@H](F)C3)n2)cc1 [Compound I-11, (S)—N-(4-(4-(1,2,4-Thiadiazol-5-ylamino)-6-(3-fluoropyrrolidin-1-yl)pyrimidin-2-ylthio)phenyl)-3,3,3-trifluoropropanamide]

Each compound was assayed against T1, Aurora-2 (Aurora A) (Homo sapiens, UniProt O14965) (assay: Aurora-2 (Aurora A) inhibition assay, coupled enzyme assay). Conditions: 400 μM ATP, 570 μM Kemptide, 40 nM Aurora-2, 30° C.
T1 sequence (O14965 1-403): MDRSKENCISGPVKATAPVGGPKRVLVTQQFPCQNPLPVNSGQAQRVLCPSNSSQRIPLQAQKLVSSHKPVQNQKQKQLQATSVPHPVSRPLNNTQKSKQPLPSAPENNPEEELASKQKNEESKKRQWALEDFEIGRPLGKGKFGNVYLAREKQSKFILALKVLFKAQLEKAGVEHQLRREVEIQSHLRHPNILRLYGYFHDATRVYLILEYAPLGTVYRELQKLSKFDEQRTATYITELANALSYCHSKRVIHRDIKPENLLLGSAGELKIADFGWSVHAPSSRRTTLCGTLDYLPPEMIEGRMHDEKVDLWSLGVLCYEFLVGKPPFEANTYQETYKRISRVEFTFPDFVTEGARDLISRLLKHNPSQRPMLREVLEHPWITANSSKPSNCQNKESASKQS
Assay type: biochemical
Experimental: Compounds were screened for their ability to inhibit Aurora-2 using a standard coupled enzyme assay (Fox et al., Protein Sci., (1998) 7, 2249). Assays were carried out in a mixture of 100 mM Hepes (pH7.5), 10 mM MgCl2, 1 mM DTT, 25 mM NaCl, 2.5 mM phosphoenolpyruvate, 300 μM NADH, 30 μg/ml pyruvate kinase and 10 μg/ml lactate dehydrogenase. Final substrate concentrations in the assay were 400 μM ATP (Sigma Chemicals) and 570 μM peptide (Kemptide, American Peptide, Sunnyvale, Calif.). Assays were carried out at 30° C. and in the presence of 40 nM Aurora-2.
An assay stock buffer solution was prepared containing all of the reagents listed above, with the exception of Aurora-2 and the test compound of interest. 55 μl of the stock solution was placed in a 96 well plate followed by addition of 2 μl of DMSO stock containing serial dilutions of the test compound (typically starting from a final concentration of 7.5 μM). The plate was preincubated for 10 minutes at 30° C. and the reaction initiated by addition of 10 μl of Aurora-2. Initial reaction rates were determined with a Molecular Devices SpectraMax Plus plate reader over a 10 minute time course. IC50 and Ki data were calculated from non-linear regression analysis using the Prism software package (GraphPad Prism version 3.0cx for Macintosh, GraphPad Software, San Diego Calif., USA).

Ki	Structure (SMILES)
33 nM	O=C(CC(F)(F)F)Nc1ccc(Sc2nc(Nc3ncns3)cc(N3CC(F)(C4CC4)C3)n2)cc1 [Compound I-1, N-(4-(4-(1,2,4-thiadiazol-5-ylamino)-6-(3-cyclopropyl-3-fluoroazetidin-1-yl)pyrimidin-2-ylthio)phenyl)-3,3,3-trifluoropropanamide]
